Measured values published in US20090317497A1, “Compositions and methods for promoting brain and cardiovascular health, preventing and treating brain and cardiovascular disorders” (priority 2007, published 2009).

Experiments:
[1] = tested on: apoptosis-induced nuclear DNA fragmentation in cerebral cortex; assay: Apoptosis assay, TUNEL staining, SHR (Example 7); type: in vivo; conditions: doses of Table 14
Description: TUNEL staining was used for detection of apoptosis-induced nuclear DNA fragmentation via fluorescence microscopy. Apoptotic cells were identified by using TUNEL staining.

[2] = tested on: spontaneous hypertension rats (SHR) with stroke induced middle cerebral artery occlusion (MCAO); assay: Chronic MCAO stroke study, SHR (Example 7); type: in vivo; conditions: Braintone (500), Ginkgo 20, Aspirin 10, Losartan 1 mg/kg/day, means +/- SD, scale 0 to 5
[3] = tested on: oxidized DNA base products; assay: DNA damage, oxidized DNA base products by GC/MS, Wistar (Example 7); type: in vivo, Wistar rats; conditions: stroke-induced, Aspirin 10, Losartan 1 mg/kg/day
[4] = tested on: apoptosis-induced nuclear DNA fragmentation in cerebral cortex; assay: Apoptosis assay, TUNEL staining, Wistar (Example 7); type: in vivo, Wistar rats; conditions: after 1 month of MCAO, doses of Table 14
Description: TUNEL staining was used for detection of apoptosis-induced nuclear DNA fragmentation via fluorescence microscopy.
Apoptotic cells were identified by using TUNEL staining.

[5] = tested on: Wistar rats with stroke induced middle cerebral artery occlusion (MCAO); assay: Chronic MCAO stroke study, Wistar (Example 7); type: in vivo; conditions: Braintone 500 mg/kg, Ginkgo 20, Aspirin 10, Losartan 1 mg/kg/day, means +/- SD, scale 0 to 5
Protocol: (§1) 96 Wistar rats and 96 SHR, weighing 250-300 g, were randomly divided into eight treatment groups respectively (see Table 14), Remembrance (Formulation A) and other comparative drugs were dissolved in distilled water and administrated orally once daily for two months (Table 14: dosage of administration).
Oral administration of Remembrance/other treatments (2 months)→MACO→Continue the corresponding treatment after MACO (1 month)→Measurements
The differentiation of […] capillaries and evaluation of morphological changes after cerebral ischemia were performed using Hematoxylin and Eosin Staining. Random slides of the rat brains were used for the staining.

Wistar Rats with MCAO = assay: 2-week MCAO stroke study, Wistar (Example 4); type: in vivo
Protocol: (§2) Wistar and SHR rats were randomly divided into four treatment groups and one sham group (see Table 7 and 8).
(§3) The morphological changes were evaluated after cerebral ischemia. The brains were dipped in M-1 Embedding Matrix for frozen sectioning, frozen in liquid nitrogen and stored at −80 deg C. The cerebral sections were then cut from the middle part of the frozen brain at 20 um. 4 to 6 sections were obtained from each brain for HE staining. HE staining of sections was performed to differentiate capillaries, after which they were covered with crystal mount. Cerebral sections were examined under the microscope and photographed.

[6] = tested on: oxidized DNA base products; assay: Evaluation of DNA damage in blood DNA by GC/MS (Example 5); type: in vivo, Wistar rats and SHR; conditions: Stroke + treatment, doses of Table 9; mean ± S.D.; unit not given in Table 11 (Table 10: nmol/mg DNA)
Protocol: 60 Wistar rats and 60 SHR were divided into six treatment groups separately (excluding the vehicle group). The single blinded experiment was conducted with Formulation B and other drugs being administrated once daily orally (see Table 9). After a week treatment, Wistar rats underwent a MCAO procedure to induce stroke. Treatment was continued for another week after surgery before the rats were sacrificed by decapitation. DNA extraction and DNA base damage analysis was then performed. DNA was extracted from blood samples collected from different treatment groups of Wistar rats and SHR using the phenol-chloroform method. The DNA samples were then analyzed by GC/MS.

AT2 receptor = assay: RT-PCR gene expression in left cortex after MCAO: AT2 (Example 6); type: in vivo, Wistar rats; conditions: stroke operated groups, doses of Table 12; compared with stroke operated vehicle group (p<0.05)
Description: (§4) The brains were collected for further gene expression studies. The cerebral left cortexes containing infarct area were separated.

BcL-xS [7] = assay: RT-PCR gene expression in left cortex after MCAO: BcL-xS (Example 6); type: in vivo, Wistar rats; conditions: stroke operated, doses of Table 12; compared with stroke operated vehicle group (p<0.05)
Description: as §4

BcL-xL [8] = assay: Gene expression Bcl-xL, Wistar (Example 7); type: in vivo, Wistar rats; conditions: Losartan 1 mg/kg/day, compared with vehicle group (p<0.01)
Protocol: as §1
(§5) Glyceraldehydes-3-[…] dehydrogenase (GAPDH) was used as the internal standard gene. Primers sequences of GAPDH, VEGF, eNOS, ACE, AT1, AT2, Fas, Bax, Bcl-xL and Bcl-xS were used in this study.

Fas = assay: RT-PCR gene expression in left cortex after MCAO: Fas (Example 6); type: in vivo, Wistar rats; conditions: stroke-operated group, doses of Table 12; compared with stroke operated vehicle group
Description: as §4

[9] = tested on: Spontaneous Hypertensive Rats (SHR) with MCAO; assay: 2-week MCAO stroke study, SHR (Example 4); type: in vivo
Protocol: as §2, §3

Bax = assay: RT-PCR gene expression in left cortex after MCAO: Bax (Example 6); type: in vivo, Wistar rats; conditions: stroke-operated group, doses of Table 12; compared with stroke operated vehicle group (p<0.05)
Description: as §4

BcL-xL [10] = assay: RT-PCR gene expression in left cortex after MCAO: BcL-xL (Example 6); type: in vivo, Wistar rats; conditions: stroke operated, doses of Table 12
Description: as §4

Bcl-xS [11] = assay: Gene expression Bcl-xS, SHR (Example 7); type: in vivo; conditions: doses of Table 14, vs Vehicle group
Protocol: as §1, §5

Inhibition of ABTS Assay = type: biochemical; conditions: 10 ul of 10 mg/ml in 990 ul ABTS reagent; 2 minutes; 734 nm
Protocol: 10 ul of 10 mg/ml of select herbal extracts and two batches of Formulation B were mixed with 990 ul of ABTS reagent and incubated for 2 minutes before the absorbance was measured by UV visible spectrophotometer at 734 nm.

[12] = Inhibition of Pyrogallol Red Bleaching by Hypochlorous Acid; type: biochemical; conditions: 10 mg/ml; 125 uM HOCL; pH 7.4, 37 deg. C.; 542 nm
Protocol: Pyrogallol Red was dissolved in 100 mM buffer at 37 deg. C., pH 7.4, after which 125 uM HOCL was added and incubated with 10 mg/ml ascorbic acid and other select herbal extracts including two batches of Formulation B. The absorbance values of the mixtures in the presence and absence of the antioxidant were recorded by UV visible spectrophotometer at 542 nm.

[13] = MCAO, Formulation B 500 mg/kg/day, Losartan 1 mg/kg/day
[14] = MCAO, Formulation B 500 mg/kg/day, Losartan 1 mg/kg/day, day 13

## CC(=O)Oc1ccccc1C(=O)O [Aspirin]
[1]
  apoptosis (TUNEL staining) in cerebral cortex: reduction in apoptosis
[2]
  Neurological score, 1 day after stroke: 1.72 ± 1.73
  Neurological score, 1 day before decapitation: 1.54 ± 2.15
  Neurological score, 15 days after stroke: 0.63 ± 1.84
[3]
  amount of DNA damage compared to Remembrance 500 mg group: higher amount of DNA damage
[4]
  apoptosis (TUNEL staining) in cerebral cortex: reduction in apoptosis
[5]
  Neurological score, 1 day after stroke: 1 ± 1.73
  Neurological score, 1 day before decapitation: 2 ± 2.74
  Neurological score, 15 days after stroke: 2 ± 2.45

## CCCCc1nc(Cl)c(CO)n1Cc1ccc(-c2ccccc2-c2nn[nH]n2)cc1 [Losartan]
Wistar Rats with MCAO; [13]
  infarct volume: 2.41%
Wistar Rats with MCAO; [14]
  mortality rate: 0%
Wistar Rats with MCAO; after MCAO
  number of capillaries, HE staining: 22 capillaries
[6]
  2OH Adenine: 0.02 ± 0.03
  5(OH, Me) Uracil: 0.04 ± 0.03
  5CI Uracil: 0.02 ± 0.01
  5Formyl Uracil: 0.01 ± 0.01
  5OH Cytosine: 0.01 ± 0.01
  5OH Uracil: 0.01 ± 0.01
  5OH, Me Hydantoin: 0.10 ± 0.02
  8OH Adenine: 0.05 ± 0.04
  8OH Guanine: 0.13 ± 0.04
  FAPy Adenine: 0.09 ± 0.03
  FAPy Guanine: 0.03 ± 0.03
  Hypoxanthine: 22.21 ± 8.01
  Thymine Glycol (cis): 2.20 ± 0.15
  Xanthine: 1.51 ± 0.32
AT2 receptor
  AT2 expression: significantly reduced
[3]
  amount of DNA damage compared to Remembrance 500 mg group: higher amount of DNA damage
BcL-xS [7]
  BcL-xS expression: significantly reduced expression
BcL-xL [8]
  Bcl-xL expression: significant fold decrease
Fas
  Fas expression: no significant effect
[9]; [13]
  infarct volume: 5.22%
[9]; [14]
  mortality rate: 28.6%
[9]; after MCAO
  number of capillaries, HE staining: 15 capillaries
Bax
  Bax gene expression: significant effect in down regulating
BcL-xL [10]
  BcL-xL up or down regulation: did not have any significant effects
Bcl-xS [11]
  Bcl-xS expression: up-regulating effects

## CCOC(=O)[C@H](CCc1ccccc1)N[C@@H](C)C(=O)N1[C@H](C(=O)O)C[C@@H]2CCC[C@@H]21 [Ramipril]
[6]
  2OH Adenine: 0.03 ± 0.02
  5(OH, Me) Uracil: 0.03 ± 0.00
  5CI Uracil: 0.01 ± 0.00
  5Formyl Uracil: 0.50 ± 0.03
  5OH Cytosine: 0.05 ± 0.01
  5OH Uracil: 0.06 ± 0.00
  5OH, Me Hydantoin: 0.04 ± 0.02
  8OH Adenine: 0.03 ± 0.01
  8OH Guanine: 0.13 ± 0.07
  FAPy Adenine: 0.08 ± 0.03
  FAPy Guanine: 0.03 ± 0.01
  Hypoxanthine: 18.12 ± 11.18
  Thymine Glycol (cis): 0.68 ± 0.31
  Xanthine: 2.61 ± 1.64
AT2 receptor
  AT2 expression: significantly reduced
BcL-xS [7]
  BcL-xS expression: significantly reduced expression
Fas
  Fas expression: no significant effect
Bax
  Bax gene expression: significant effect in down regulating
BcL-xL [10]
  BcL-xL up or down regulation: did not have any significant effects

## O=C1O[C@H]([C@@H](O)CO)C(O)=C1O [ascorbic acid]
Inhibition of ABTS Assay
  scavenging effect of ABTS: 100%
[12]
  pyrogallol red bleaching inhibition: ~100%
